Patent publication US11925702B2, “Methods for extracting compound from ginseng, ginseng extract comprising the compound and composition for enhancing skin barrier comprising the same” (AMOREPACIFIC CORPORATION, priority 2022, dated 2024)

Tests used:
Type in all cases: cell-based, human
[1] = test system: Filaggrin (FLG) gene; assay: Filaggrin (FLG) gene expression in NHEK by Taqman real-time PCR; settings: isolated compound added to NHEK culture media, concentration series (FIG. 5)
Description: (§1) (1) Normal human epidermal keratinocytes (NHEK) were cultured in 6-well culture media. The anaerobic-naturally fermented ginseng extract of the preparation example and an unfermented fresh ginseng extract were respectively added to the NHEK media and cultured. After harvesting the cells on the 4th day, separating RNA therefrom, and synthesizing cDNA through RT-PCR (reverse transcriptional polymerase chain reaction), the synthesized cDNA was measured with respect to an expression level of the Filaggrin gene through Taqman real-time PCR, and the results are shown in FIG. 4.
(§2) (2) The compound represented by Chemical Formula 1-1, which was separated from the anaerobic-naturally fermented ginseng extract of the preparation example, was added to an NHEK culture media and treated in the same manner as in (1), and then measured with respect to each gene expression level of Filaggrin, Occludin, and ATP-binding cassette sub-family A member 12 (ATP-binding cassette transporter 12), and the results are shown in FIGS. 5 to 7.

[2] = test system: Occludin (OCLN) gene; assay: Occludin (OCLN) gene expression in NHEK by Taqman real-time PCR; settings: isolated compound added to NHEK culture media, concentration series (FIG. 6)
Description: as §1, §2

[3] = test system: ATP-binding cassette sub-family A member 12 (ABCA12) gene; assay: ABCA12 gene expression in NHEK by Taqman real-time PCR; settings: isolated compound added to NHEK culture media, concentration series (FIG. 7)
Description: as §1, §2

CC(C)=CCC[C@](C)(O[C@@H]1O[C@H](CO[C@@H]2O[C@H](CO)[C@@H](O)[C@H](O)[C@H]2O)[C@@H](O)[C@H](O)[C@H]1O)[C@H]1CC[C@]2(C)[C@@H]1[C@H](O)C[C@@H]1[C@@]3(C)CC[C@H](O[C@@H]4O[C@H](CO)[C@@H](O)[C@H](O)[C@H]4O)C(C)(C)[C@@H]3CC[C@]12C [Chemical Formula 1-1]
gene expression level of Filaggrin (FLG) [1]: increased, as a concentration thereof was increased
gene expression level of Occludin (OCLN) [2]: increased, as a concentration thereof was increased
gene expression level of ATP-binding cassette sub-family A member 12 (ABCA12) [3]: increased, as a concentration thereof was increased
